This is an account of results in patent EP3514141A1, “MAGNETIC MOLECULES” (Centre National de la Recherche Scientifique, priority 2018, dated 2019).

Holding throughout (assay type): physicochemical
Series [1] is described as follows: Preparation of paramagnetic oil with paraffin (mineral) oil. The settings on record: typically 10-30 wt%, as co-component. The protocol:
The complex 3 (molecules of structure (I)) is dissolved in the minimum amount of dichloromethane, so to have a homogeneous solution, after that a fatty alcohol (e.g. isofol® 12) is added (typically 10-40 wt%), and the resultant mixture rotary evaporated under high vacuum to completely eliminate the volatile dichloromethane, resulting in the target homogeneous transparent paramagnetic oil.
The composition is prepared according to example 5.1 but using paraffin (mineral) oil (typically 10-30 wt%) as co-component instead of the fatty alcohol.
This method is particularly suitable when using complexes with long chains (preferably more than 8 carbon atoms).

The nature of series [2]: Magnetic susceptibility by the Evans method (1H NMR shift of residual CDCl3 proton). The note with it: solution in CDCl3; for χmass: mass susceptibility; for χmol: molar susceptibility, χmol = MW*χmass. The source says: For the prepared molecules of structure (I) in table 2 below, the paramagnetic properties have been evaluated by the Evans method [D.F. Evans, J. Chem. Soc. 2003 (1959)]. This is based on nuclear magnetic measurements (NMR), and relies on the fact that the chemical shift (position) of the ^1H NMR signals of a molecule depend on the bulk susceptibility of the medium. In particular, the resonance line of the residual proton of CDCl3 (i.e. the NMR solvent) was used as a reference, by comparing its chemical shift for the pure CDCl3 and for a solution containing the molecules of structure (I).
As expected the mass susceptibility of the different complexes (molecules of structure (I)) vary depending on mass ratio between the paramagnetic ion (e.g. Ho^3+) and the organic DTPA-ligand (thus, it is smaller for the bigger ligands). […] Magnetism and magnetic materials. Cambridge University Press, 2010]

Series [3] is described as follows: Verdet coefficient measurement (magneto-optic, Faraday effect). The note with it: 1 M aqueous solution (control). On the procedure: The composition is prepared according to example 5.1 but using isofol 12 to obtain a weight fraction of 23 % w/w of isofol 12, where Tb^3+ is used as the paramagnetic ion in structure (I). The Verdet coefficient was determined to be 17.1 rad T^-1 m^-1 at 410 nm wavelength, and 8.0 rad T^-1 m^-1 at 600 nm. As a control a 1 M TbCl3 aqueous solution was measured using the same method resulting in a Verdet coefficient of 14.1 rad T^-1 m^-1 at 410 nm wavelength, and 4.9 rad T^-1 m^-1 at 600 nm in agreement with literature.

Consider Ho-DTPA-(1-octadecanol)2, for which, in series [1], the “appearance of composition with mineral oil” value is recorded as “homogeneous transparent fluid reacting to magnetic fields”.

As to Ho-DTPA-(3,7-dimethy-1-octanol)2, in series [2], the χmass is given as 5.05 (cm^3 g^-1) /10-5 and the χmol is recorded as 0.0422 cm^3 mol^-1.

Consider Ho-DTPA-(2-butyl-1-octanol)2, for which, in series [2], the χmass is 4.98 (cm^3 g^-1) /10-5 and the χmol was 0.0350 cm^3 mol^-1.

For Ho-DTPA-(hexanol)2, in series [2], the χmass was 6.04 (cm^3 g^-1) /10-5 and the χmol is reported as 0.0437 cm^3 mol^-1.

For Ho-DTPA-(2-octyl-1-dodecanol)2, in series [2], the χmass is 3.72 (cm^3 g^-1) /10-5 and the χmol stood at 0.0415 cm^3 mol^-1.

Consider `CC(=O)[O-].CC(=O)[O-].CC(=O)[O-].O.[Ho+3]` [Ho(AcO)3 *nH2O, reference compound], for which, in series [2], the χmass is reported as 11.0 (cm^3 g^-1) /10-5 and the χmol was 0.037 cm^3 mol^-1.

Take `[Cl][Tb]([Cl])[Cl]` [TbCl3]: the Verdet coefficient in series [3] (410 nm wavelength) worked out at 14.1 rad T^-1 m^-1; in series [3] (600 nm) it was 4.9 rad T^-1 m^-1.
